Data reported in patent US20100086483A1, “METHOD OF MULTIDETECTOR COMPUTED TOMAGRAPHY” (Gilead Palo Alto, Inc., priority 2008, published 2010).

Assays:
normal subjects [1] = test: PET myocardial blood flow / coronary flow reserve after regadenoson with and without caffeine, crossover study; format: in vivo, human; conditions: for log CFR±SE: n=40
Procedure: (§1) 15O water was used as the radionuclide in the PET scans. There was a 1- to 14-day washout period between dosing days. Blood samples and measures of safety were collected until 120 minutes after study drug administration.
The CVT tracking number for the placebo capsules was 1341 (Leg 2).
The primary efficacy measure was the log coronary flow reserve (CFR), which is the ratio of stress MBF after regadenoson dosing to the resting MBF.
The data were also to be analyzed using Wilcoxon's rank-sum test.

normal subjects [2] = test: Safety and tolerability of regadenoson with and without prior caffeine; format: in vivo, human
Procedure: as §1
Safety measures included adverse events (AEs), serious adverse events, vital signs (HR and BP), ECG, concomitant medications, and a tolerability questionnaire. All available data from subjects who received the single dose of regadenoson were to be included in the statistical summaries.
ECG intervals and changes from baseline values in ECG intervals were to be presented, as were occurrences of rhythm or conduction abnormalities. Concomitant medication usage was to be summarized.
Tolerability questionnaire responses were to be analyzed using the Wilcoxen rank sum test (“How did you feel?” question) and the exact Cochran-Mantel-Haenszel test (Day 2-only question “How did this test compare to the first test?”).

[3] = caffeine 200 mg po, regadenoson 400 μg IV
[4] = regadenoson 400 μg IV after caffeine 200 mg po
[5] = caffeine 200 mg po vs placebo, regadenoson 400 μg IV, p<0.001
[6] = regadenoson 400 μg IV after placebo capsule
[7] = regadenoson 400 μg IV, 25/43 subjects

Cn1c(=O)c2c(ncn2C)n(C)c1=O [Caffeine, caffeine]
change in CFR (95% confidence) (normal subjects [1]; caffeine 200 mg po vs placebo, regadenoson 400 μg IV): < 20%
exponentiated lower limit of 90% confidence interval for log CFR (caffeine versus placebo difference) (normal subjects [1]; [3]): 0.80
exponentiated lower limit of 95% confidence interval for log CFR (caffeine versus placebo difference) (normal subjects [1]; [3]): 0.78
exponentiated upper limit of 90% confidence interval for log CFR (caffeine versus placebo difference) (normal subjects [1]; [3]): 1.06
exponentiated upper limit of 95% confidence interval for log CFR (caffeine versus placebo difference) (normal subjects [1]; [3]): 1.08
interaction of caffeine with regadenoson on CFR by sex (normal subjects [1]; [3]): no significant interaction
CFR (stress/rest) (normal subjects [1]; [4]): 2.75±0.16
log CFR±SE (normal subjects [1]; [4]): 0.95±0.06
tolerability questionnaire: comfort during the test with caffeine (normal subjects [2]; [5]): felt more comfortable
tolerability questionnaire: feeling after the caffeine test vs the placebo test (normal subjects [2]; [5]): felt better
effect of caffeine on severity of AEs (normal subjects [2]; [3]): attenuated
effect of caffeine on systolic or diastolic blood pressures in the presence of regadenoson (normal subjects [2]; [3]): no effect
overall incidence of AEs, placebo vs caffeine groups (normal subjects [2]; [3]): no difference
effect of caffeine on HR increase caused by regadenoson (normal subjects [2]; caffeine 200 mg po, regadenoson 400 μg IV, p<0.001): attenuated
regadenoson-induced headache severity with caffeine (normal subjects [2]; caffeine 200 mg po, regadenoson 400 μg IV, p=0.012): decreased

CNC(=O)c1cnn(-c2nc(N)c3ncn([C@@H]4O[C@H](CO)[C@@H](O)[C@H]4O)c3n2)c1 [Regadenoson, (1-{9-[(4S,2R,3R,5R)-3,4-dihydroxy-5-(hydroxymethyl)oxolan-2-yl]-6-aminopurin-2-yl}pyrazol-4-yl)-N-methylcarboxamide]
CFR (stress/rest) (normal subjects [1]; [6]): 2.97±0.16
log CFR±SE (normal subjects [1]; [6]): 1.03±0.06
AE sensation of heaviness, percentage of subjects (normal subjects [2]; regadenoson 400 μg IV): 28%
QTc prolongation (>500 msec and change of >60 msec) by ECG analysis after regadenoson dosing (normal subjects [2]; regadenoson 400 μg IV): one subject
first degree AV block by ECG analysis after regadenoson dosing (normal subjects [2]; regadenoson 400 μg IV): one subject
deaths or SAEs (normal subjects [2]; regadenoson 400 μg IV with and without caffeine): no reported deaths or SAEs
patients with at least one AE considered possibly related to regadenoson treatment (normal subjects [2]; regadenoson 400 μg IV, 1/43): 2%
AEs: ear and labyrinth disorders, percentage of subjects (normal subjects [2]; regadenoson 400 μg IV, 1/43 subjects): 2%
AEs: gastrointestinal disorders, percentage of subjects (normal subjects [2]; regadenoson 400 μg IV, 2/43 subjects): 5%
subjects with at least one AE with a maximum severity of severe (normal subjects [2]; regadenoson 400 μg IV, 4/43): 9%
AE paraesthesia, percentage of subjects (normal subjects [2]; regadenoson 400 μg IV, 8/43): 19%
AEs: general disorders and administration site conditions, percentage of subjects (normal subjects [2]; regadenoson 400 μg IV, 11/43 subjects): 26%
AE headache, percentage of subjects (normal subjects [2]; regadenoson 400 μg IV, 12/43): 28%
AEs: musculoskeletal and connective tissue disorders, percentage of subjects (normal subjects [2]; regadenoson 400 μg IV, 12/43 subjects): 28%
AE flushing, percentage of subjects (normal subjects [2]; regadenoson 400 μg IV, 13/43): 30%
AEs: vascular disorders, percentage of subjects (normal subjects [2]; regadenoson 400 μg IV, 13/43 subjects): 30%
AEs: nervous system disorders, percentage of subjects (normal subjects [2]; regadenoson 400 μg IV, 18/43 subjects): 42%
AE palpitations, percentage of subjects (normal subjects [2]; regadenoson 400 μg IV, 21/43): 49%
subjects with at least one AE with a maximum severity of moderate (normal subjects [2]; regadenoson 400 μg IV, 21/43): 49%
AE dyspnoea, percentage of subjects (normal subjects [2]; regadenoson 400 μg IV, 24/43): 56%
AEs: cardiac disorders, percentage of subjects (normal subjects [2]; [7]): 58%
AEs: respiratory, thoracic and mediastinal disorders, percentage of subjects (normal subjects [2]; [7]): 58%
subjects with at least one AE with a maximum severity of mild (normal subjects [2]; regadenoson 400 μg IV, forty percent): 17/43
subjects with at least one AE considered probably related to regadenoson treatment (normal subjects [2]; regadenoson 400 μg IV, ninety-five percent): 41/43
